The structures appear in SMILES notation. pKi: −log10 of the molar value.

This is an account of results in publication PMC2270815, “Inhibition of 11βHSD1 with the S-phenylethylaminothiazolone BVT116429 increases adiponectin concentrations and improves glucose homeostasis in diabetic KKA^y mice” (BMC Pharmacology, 2008).

For assay [1], the target named is T1, 11β HSD1 (11β-hydroxysteroid dehydrogenase type 1) (Homo sapiens, UniProt P28845).
T1 construct: gene HSD11B1; purified recombinant human 11β HSD1
T1 sequence (P28845 whole entry): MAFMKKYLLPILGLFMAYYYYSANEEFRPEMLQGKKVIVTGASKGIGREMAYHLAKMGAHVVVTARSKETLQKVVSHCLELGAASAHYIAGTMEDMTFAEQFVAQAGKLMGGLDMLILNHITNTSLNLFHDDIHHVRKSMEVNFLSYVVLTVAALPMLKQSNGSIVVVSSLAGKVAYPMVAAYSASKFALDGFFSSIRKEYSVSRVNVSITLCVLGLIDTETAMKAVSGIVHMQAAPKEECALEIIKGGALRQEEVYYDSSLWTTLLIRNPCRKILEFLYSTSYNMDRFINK
The assay can be described thus: in vitro enzyme inhibition assay with purified recombinant enzyme. In kind it is biochemical.

In assay [2] the target is T2, 11β HSD1 (11β-hydroxysteroid dehydrogenase type 1) (Mus musculus, UniProt P50172).
T2 construct: gene Hsd11b1; purified recombinant mouse 11β HSD1
T2 sequence (P50172 whole entry): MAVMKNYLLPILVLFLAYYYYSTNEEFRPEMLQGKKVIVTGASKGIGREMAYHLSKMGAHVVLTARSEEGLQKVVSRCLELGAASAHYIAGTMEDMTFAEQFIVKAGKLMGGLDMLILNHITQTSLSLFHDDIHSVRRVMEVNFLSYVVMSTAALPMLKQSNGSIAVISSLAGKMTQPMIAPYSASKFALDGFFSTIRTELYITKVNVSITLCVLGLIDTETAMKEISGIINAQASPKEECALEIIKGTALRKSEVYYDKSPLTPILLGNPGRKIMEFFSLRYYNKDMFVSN
Described as above. In kind it is biochemical.

A word on the pKi: it is the negative decadic logarithm of the Ki, by convention in mol/L. As for `C[C@H](NC1=NC(=O)[C@@](C)(C(F)(F)F)S1)c1ccccc1F` [BVT116429, (S)-2-((S)-1-(2-fluorophenyl)ethylamino)-5-methyl-5-(trifluoromethyl)thiazol-4(5H)-one], the pKi in assay [1] was 7.54; in assay [2], 7.44.
